ChEMBL document CHEMBL1137586, “Aminomethyl tetrahydronaphthalene ketopiperazine MCH-R1 antagonists--Increasing selectivity over hERG” (Bioorg Med Chem Lett, 2007)

What was measured:
[1] = biological target: T1, Melanin-concentrating hormone receptor 1 (Homo sapiens, UniProt Q99705); experiment: Functional antagonism of MCH-R1 expressed in HEK293 cells; type: cell-based
[2] = biological target: T2, Voltage-gated inwardly rectifying potassium channel KCNH2 (Homo sapiens, UniProt Q12809); experiment: Inhibition of binding to hERG
[3] = Serum concentration in DIO mice 2 hr post 20mg/kg peroral dose; type: ADME, organism-based; conditions: mouse, po, read-out: Serum conc
[4] = test system: Mus musculus; experiment: Percent weight loss in DIO mice 4 days after 20 mg/kg peroral dose; type: functional; conditions: route oral
[5] = biological target: T1, Melanin-concentrating hormone receptor 1; experiment: Inhibition of binding to MCH-R1
[6] = biological target: hERG (KCNH2) (Homo sapiens, UniProt Q12809); experiment: Percent inhibition of binding to hERG at10uM
[7] = Relative concentration in DIO mouse brain over serum 2 hr post 20mg/kg peroral dose; type: ADME, organism-based; conditions: po
[8] = biological target: T2, Voltage-gated inwardly rectifying potassium channel KCNH2; experiment: Prolonged QTc interval in anaesthetized dogs after 15min infusion at 30 mg/kg compared to vehicle; conditions: dog, in vivo, iv, 0.25 h

T1 sequence (Q99705 whole entry): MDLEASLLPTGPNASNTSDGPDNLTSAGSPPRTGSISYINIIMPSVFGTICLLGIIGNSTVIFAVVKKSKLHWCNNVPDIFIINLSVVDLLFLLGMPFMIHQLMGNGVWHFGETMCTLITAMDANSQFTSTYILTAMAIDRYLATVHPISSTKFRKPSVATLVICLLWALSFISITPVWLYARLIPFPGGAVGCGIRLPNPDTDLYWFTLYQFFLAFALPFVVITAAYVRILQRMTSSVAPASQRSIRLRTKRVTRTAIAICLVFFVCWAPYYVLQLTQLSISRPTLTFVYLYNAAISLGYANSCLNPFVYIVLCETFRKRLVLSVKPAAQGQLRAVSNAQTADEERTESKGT
T2 sequence (Q12809 whole entry): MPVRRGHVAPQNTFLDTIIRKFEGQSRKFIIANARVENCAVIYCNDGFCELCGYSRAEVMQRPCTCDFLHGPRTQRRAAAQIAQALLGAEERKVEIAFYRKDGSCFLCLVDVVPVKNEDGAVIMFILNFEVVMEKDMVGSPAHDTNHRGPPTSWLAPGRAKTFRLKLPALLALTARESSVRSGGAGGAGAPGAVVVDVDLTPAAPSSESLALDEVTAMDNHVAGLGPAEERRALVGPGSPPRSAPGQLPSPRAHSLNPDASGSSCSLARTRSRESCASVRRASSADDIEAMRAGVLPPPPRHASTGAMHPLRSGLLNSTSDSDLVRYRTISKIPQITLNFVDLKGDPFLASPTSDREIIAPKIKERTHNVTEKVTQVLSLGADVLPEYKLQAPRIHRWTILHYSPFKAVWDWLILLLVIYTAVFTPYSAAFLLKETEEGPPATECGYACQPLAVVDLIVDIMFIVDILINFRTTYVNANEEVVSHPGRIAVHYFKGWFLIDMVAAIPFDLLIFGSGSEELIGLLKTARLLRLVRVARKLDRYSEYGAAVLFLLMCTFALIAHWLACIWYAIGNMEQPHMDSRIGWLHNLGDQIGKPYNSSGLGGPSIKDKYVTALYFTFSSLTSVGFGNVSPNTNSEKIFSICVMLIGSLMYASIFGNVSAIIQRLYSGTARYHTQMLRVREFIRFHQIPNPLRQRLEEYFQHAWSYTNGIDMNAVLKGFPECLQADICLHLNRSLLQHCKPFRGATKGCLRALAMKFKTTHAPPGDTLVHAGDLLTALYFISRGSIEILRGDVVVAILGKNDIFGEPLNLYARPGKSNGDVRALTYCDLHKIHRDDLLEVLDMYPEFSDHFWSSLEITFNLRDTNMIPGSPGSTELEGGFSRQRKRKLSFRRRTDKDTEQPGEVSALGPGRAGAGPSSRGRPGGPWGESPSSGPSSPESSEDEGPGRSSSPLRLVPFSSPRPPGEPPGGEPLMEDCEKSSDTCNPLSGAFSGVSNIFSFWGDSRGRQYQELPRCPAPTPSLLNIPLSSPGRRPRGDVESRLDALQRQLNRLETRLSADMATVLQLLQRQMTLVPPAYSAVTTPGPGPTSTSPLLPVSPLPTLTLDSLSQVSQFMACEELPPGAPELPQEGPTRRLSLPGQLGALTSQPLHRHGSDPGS
Chain of hERG (KCNH2) (Q12809 whole entry): as above

SMILES: CCN(CC)Cc1ccc2c(c1)CC[C@H](N1CCN(CCC3CCCS3)CC1=O)C2 (stereo partly drawn)
- Ki [1]: 0.047 µM

SMILES: O=C1CN(CCc2ccc(F)cc2)CCN1[C@H]1CCc2cc(Cn3ccnc3)ccc2C1
- IC50 [2]: 4 µM
- Ki [1]: 52 µM

SMILES: O=C1CN(CCc2ccc(F)cc2)CCN1[C@H]1CCc2cc(CN3CCC(C(F)(F)F)CC3)ccc2C1
- IC50 [2]: 2 µM
- Ki [1]: 8.7 µM

SMILES: CN(C)C(=O)C(CO)N(C)Cc1ccc2c(c1)CC[C@H](N1CCN(CCc3ccc(F)cc3)CC1=O)C2 (stereo partly drawn)
- IC50 [2]: 25 µM

SMILES: CCN(CC)Cc1ccc2c(c1)CC[C@H](N1CCN(CCc3ccc(Cl)cc3)CC1=O)C2
- Ki [1]: 0.0033 µM

SMILES: CCN(CC)Cc1ccc2c(c1)CC[C@H](N1CCN(CCc3cccc(C(F)(F)F)c3)CC1=O)C2
- Ki [1]: 0.093 µM

SMILES: O=C1CN(CCc2ccc(F)cc2)CCN1[C@H]1CCc2cc(CN3CCOCC3)ccc2C1
- IC50 [2]: 11 µM
- Ki [1]: 15 µM

SMILES: CCN(CC)Cc1ccc2c(c1)CC[C@H](N1CCN(CCc3ccc(F)cc3)CC1=O)C2
- concentration at 2 h [3]: 2 µM
- Weight loss [4]: 4%
- Ki [5]: 0.015 µM

SMILES: CCN(CC)Cc1ccc2c(c1)CC[C@H](N1CCN(CCC3CCCCC3)CC1=O)C2
- Ki [1]: 0.032 µM

SMILES: O=C1CN(CCc2ccc(F)cc2)CCN1[C@H]1CCc2cc(CN3CCS(=O)(=O)CC3)ccc2C1
- IC50 [2]: 24 µM
- concentration at 2 h [3]: 16 µM
- Weight loss [4]: <2%

SMILES: O=C1CN(CCc2ccc(F)cc2)CCN1[C@H]1CCc2cc(CNCC(F)(F)F)ccc2C1
- inhibition at 10 µM [6]: > 50%

SMILES: CC(=O)N1CCN(Cc2ccc3c(c2)CC[C@H](N2CCN(CCc4ccc(F)cc4)CC2=O)C3)CC1
- IC50 [2]: 25 µM
- concentration at 2 h [3]: 4 µM
- Weight loss [4]: <2%
- Kp at 2 h [7]: 0.3
- QT interval [8]: Active p<0.05
- Ki [1]: 16 µM

SMILES: CS(=O)(=O)N1CCN(Cc2ccc3c(c2)CC[C@H](N2CCN(CCc4ccc(F)cc4)CC2=O)C3)CC1
- IC50 [2]: 13 µM
- concentration at 2 h [3]: 9 µM
- Weight loss [4]: 3%
- Ki [1]: 30 µM
